Patent US20170050957A1, “4-AMINO-6-(HETEROCYCLIC)PICOLINATES AND 6-AMINO-2-(HETEROCYCLIC)PYRIMIDINE-4-CARBOXYLATES AND THEIR USE AS HERBICIDES” (Dow AgroSciences LLC, priority 2013, published 2017)

What was measured:
Experiment in all cases: Post-emergent Test I herbicidal activity
Type in all cases: in vivo
wild oats (Avena fatua) = test system: wild oats (Avena fatua)
Procedure: (§1) Post-emergent Test I Seeds test species were obtained from commercial suppliers and planted into a 5″-round pot containing soil-less media mix (metro-mix 360®, Sun Gro Horticulture). Postemergence treatments were planted 8-12 days prior to application and cultured in a greenhouse equipped with supplemental light sources to provide a 16 h photoperiod at 24-29° C. All pots were surface irrigated. Approximately 10 milligrams (mg) of each compound were dissolved in 1.3 mL acetone-DMSO (97:3, v/v) and diluted with 4.1 mL water-isopropanol-crop oil concentrate (78:20:2, v/v/v) containing 0.02% Triton X-155. Treatments were serial diluted with the above formulation solvent to provide 1.85, 0.926, 0.462 and 0.231 mg/mL of test compound delivered in 2.7 mL/pot (roughly equivalent to 4.0, 2.0, 1.0, and 0.5 kg/ha, respectively). Formulated compounds were applied using a DeVilbiss® compressed air sprayer at 2-4 psi. Following treatment, pots were returned to the greenhouse for the duration of the experiment. All pots were sub-irrigated as need to provide optimum growing conditions. All pots were fertilized one time per week by subirrigating with Peters Peat-Lite Special® fertilizer (20-10-20). Phytotoxicity ratings were obtained 10 days after treatment postemergence applications. All evaluations were made visually on a scale of 0 to 100 where 0 represents no activity and 100 represents complete plant death. Visual assessments of plant injury were made based on growth reduction, discoloration, leaf deformity and necrosis

[1] = test system: barnyardgrass (Echinochloa crus-galli)
Procedure: as §1

[2] = test system: ivyleaf morningglory (Ipomoea hederecea)
Procedure: as §1

[3] = test system: giant foxtail (Setaria faberi)
Procedure: as §1

[4] = test system: sunflower (Helianthus annuus)
Procedure: as §1

Structure (SMILES)	Visual Growth Reduction (%) 10 Days After Application AVEFA (wild oats (Avena fatua); 3.96 Kg ai/ha)	Visual Growth Reduction (%) 10 Days After Application ECHCG ([1]; 3.96 Kg ai/ha)	Visual Growth Reduction (%) 10 Days After Application IPOHE ([2]; 3.96 Kg ai/ha)	Visual Growth Reduction (%) 10 Days After Application SETFA ([3]; 3.96 Kg ai/ha)	Visual Growth Reduction (%) 10 Days After Application HELAN ([4]; 3.96 Kg ai/ha)	Visual Growth Reduction (%) 10 Days After Application AVEFA (wild oats (Avena fatua); 4 Kg ai/ha)	Visual Growth Reduction (%) 10 Days After Application ECHCG ([1]; 4 Kg ai/ha)	Visual Growth Reduction (%) 10 Days After Application SETFA ([3]; 4 Kg ai/ha)	Visual Growth Reduction (%) 10 Days After Application HELAN ([4]; 4 Kg ai/ha)	Visual Growth Reduction (%) 10 Days After Application IPOHE ([2]; 4 Kg ai/ha)
COC(=O)c1nc(-c2ccc3ccn(C)c3c2)c(F)c(N)c1Cl [Compound 1.10]	G (0-29)	G (0-29)	F (30-44)	G (0-29)	A (95-100)					
Nc1c(F)c(-c2cccc3cc[nH]c23)nc(C(=O)O)c1Cl [Compound 1.48]						G (0-29)	G (0-29)	G (0-29)	C (75-84)	
COC(=O)c1nc(-c2ccc3sccc3c2)cc(N)c1Cl [Compound 3.05]						C (75-84)	A (95-100)	A (95-100)	B (85-94)	B (85-94)
